In JP2009132645A, “アシル化ハイドロキノン配糖体及びそれを含有する皮膚外用剤” (Pola Chemical Industries Inc, priority 2007, dated 2009):

Assay: Cytotoxicity in normal human epidermal melanocytes (trypan blue)
Assay type: cell-based
Details: 2 days culture, 0.5% trypan blue, concentration not given, read-out: cytotoxicity (judgement by cell death rate)

CCCCCCCCCCC(=O)OC[C@H]1O[C@@H](Oc2ccc(O)cc2)[C@H](O)[C@@H](O)[C@@H]1O [比較化合物1, 6−O−ウンデカノイルアルブチン]
cytotoxicity at 48 h: > 50%
